This note sets out measurements from patent US5034311A, “Photographic elements containing release compounds I” (Eastman Kodak Company, priority 1990, dated 1991).

A short description of the series: Rate of tetrazole inhibitor release from timing group compounds in micellar solution (HPLC of free inhibitor and residual timing group compound). Particulars: inhibitor release, pH 13.5, (+10%). In kind it is physicochemical. The protocol: Rates of tetrazole release were measured for several timing group compounds which are representative of fragments that are generated by reaction of a coupler of this invention with oxidized developer during photographic processing. These solution measurements are a useful indication of photographic performance. Lower values of inhibitor release half-lives in solution correlate with greater development inhibition effects in film.
For a given measurement, 12.5 μmol of the timing group compound was dissolved in 3.2 mL of reduced Triton X-100 surfactant plus one drop glacial acetic acid plus approximately 5 mL methylene chloride (to facilitate dissolution of the timing group compound in surfactant). After methylene chloride was evaporated under partial vacuum, water (approximately 15 mL) was added and the mixture was vigorously agitated with a vortex mixer to create micelles. This miscellar solution was then diluted to 25 mL with water and mixed again. Inhibitor release kinetics were initiated by mixing 2 mL of the above micellar solution with an equal volume of an aqueous potassium hydroxide solution (0.75 mol KOH/L), producing a reaction mixture with a pH of about 13.5. At intervals, portions of the reaction mixture were quenched by the addition of 1 mL 30% aqueous acetic acid. The quenched mixture was then analyzed by high performance liquid chromatography to determine the concentrations of free inhibitor and residual timing group compound. First-order reaction rate constants were calculated from these concentration versus time data, and the reaction half-life, t1/2, was calculated with the expression t1/2 =0.693/k, where k is the observed rate constant. […] In the following table -INH signifies the inhibitor of the structure

Consider `CCCCCCCOc1ccc(-c2nnn(C3CCCc4cc(O)ccc43)n2)cc1` (stereo not drawn), for which the “Half-Life at pH 13.5” value is on record as 15 sec.
With `CCCCCCCOc1ccc(-c2nnn(C3c4ccc(O)cc4CCC3(C)C)n2)cc1` (stereo not drawn) the figure was 100 sec; with `CCCCCCCOc1ccc(-c2nnn(C3CCCCc4cc(O)ccc43)n2)cc1` (stereo not drawn), 250 sec.
To `CCCCCCCOc1ccc(-c2nnn(C3CCOc4cc(O)ccc43)n2)cc1` (stereo not drawn) belongs 9 sec; to `CCCCCCCOc1ccc(-c2nnn(C3CCc4cc(O)ccc43)n2)cc1` (stereo not drawn), 30 sec.
To `CCCCCCCOc1ccc(-c2nnn(Cc3ccc(O)cc3)n2)cc1` [reference compound] belongs 29,000 sec.
